For data set [1] the following is noted: background statement; cited from earlier work.
Data set [2] in a line: 25(OH) vitamin D3 serum concentration under vitamin D maintenance dose in patients with vitamin D deficiency. The class given is in vivo, human. Conditions: maintenance dose of 400 IU of vitamin D daily.
Assay in data set [3]: as above
The class given is in vivo, human. The text has this:
Vitamin D deficiency is a common diagnosis in osteology practice. […] The maintenance dose was 1000 IU of vitamin D daily.

Data set [4] is described as follows: chair-rising test (standing up test) in osteoporosis patients. The class given is in vivo, human. Conditions: 60 mg denosumab (Prolia) + 500 mg calcium + 1000 IE vitamin D3. As for the experimental part:
The so-called “chair-rising test” (standing up test) was carried out in 3 patients.
The chair-rising test (standing up test) allows a determination to made concerning the strength and falling risk of the test person. The test person is asked to stand up and sit back down five times as quickly as possible with his/her arms folded over his/her chest and without using them from a chair of ordinary height (approximately 46 cm seat height). If the patient is not capable of doing this, the number of successful completions are counted rather than the seconds. If the patient takes longer than 10-11 seconds, it must be assumed that he/she is at increased risk of falling.
The improvement is given in the right column in %.

Data set [5] can be described thus: serum calcium level in patients under denosumab plus calcium and vitamin D3. The class given is in vivo, human. As for the experimental part:
The following data from an oncological patient (prostate cancer) in Table 5 show the serum levels of calcium and vitamin D3 in administration of 120 mg of denosumab (anti-RANKL antibody, Xgeva) every 4 weeks and the oral administration of 500 mg of calcium daily and 1000 IU of vitamin D3 daily.
In Table 5, the patient received 120 mg of denosumab every 4 weeks and 500 mg of calcium and 1000 IU of vitamin D3:
The following data from osteoporosis patients in Table 6 show the serum values of calcium and vitamin D3 in administration of 60 mg of anti-RANKL antibody/denosumab (Prolia) every 6 months and the oral administration of 500 mg of calcium daily and 1000 IU of vitamin D3 daily.
In Table 6, the osteoporosis patients received 60 mg of denosumab every 6 months, 500 mg of calcium daily, and 1000 IU of vitamin D3, also daily: […]

Values joined by “and” are separate entries in the source; they are usually repeats but may differ in a detail not shown here. Equal values may be shown once.

Consider `C=C1/C(=C\C=C2/CCC[C@]3(C)[C@@H]([C@H](C)CCCC(C)(C)O)CC[C@@H]23)C[C@@H](O)C[C@@H]1O` [calcitriol, 1α,25-dihydroxycholecalciferol], for which the “time to maximum serum concentration after intake” value in data set [1] is reported as “three to six”.

Turning to vitamin D, in data set [2], the “maintaining the vitamin D concentration at the standard level” value is “not sufficient”. The “25(OH) vitamin D3 serum concentration at maintenance dose of 1000 IU of vitamin D daily” value in data set [3] (individual female patients with initial vitamin D deficiency, 1000 IU vitamin D daily) was 29.2 ng/mL and 30.4 ng/mL and 28.8 ng/mL and 23.7 ng/mL and 23.2 ng/mL and 30.5 ng/mL and 25.5 ng/mL and 23.4 ng/mL. In data set [3] (maintenance dose of 1000 IU of vitamin D daily), the “maintaining the vitamin D level in the normal range” value is listed as “suitable”.

As for “denosumab: anti-RANKL antibody approved as a medicinal preparation; marketed by Amgen as Prolia (60 mg) and Xgeva (120 mg)”, the “Chair Rising time repeated 6 months later” value in data set [4] (osteoporosis patients, 6 months after beginning therapy) is 8 s and 10 s. Further, the “reduction of the risk of falling” value in data set [4] (three osteoporosis patients, 6 months) is recorded as 11-29%. For the same molecule, the “Calcium (serum)” value in data set [5] (oncological patient (prostate cancer), 120 mg denosumab (Xgeva) every 4 weeks + 500 mg calcium and 1000 IU vitamin D3 daily, after 13 weeks) is 2.11 mmol/L; in data set [5] (oncological patient (prostate cancer), 120 mg denosumab (Xgeva) every 4 weeks + 500 mg calcium and 1000 IU vitamin D3 daily, after 26 weeks), 2.12 mmol/L; in data set [5] (osteoporosis patients, 60 mg denosumab (Prolia) every 6 months + 500 mg calcium and 1000 IU vitamin D3 daily, after 13 weeks) it was 2.34 mmol/L and 2.32 mmol/L and 2.3 mmol/L and 2.37 mmol/L; in data set [5] (osteoporosis patients, 60 mg denosumab (Prolia) every 6 months + 500 mg calcium and 1000 IU vitamin D3 daily, after 26 weeks) it was 2.32 mmol/L and 2.45 mmol/L.

These data come from US20230218754A1, “PHARMACEUTICAL COMPOSITIONS WITH ANTI-RANKL ANTIBODIES, CALCIUM AND VITAMIN D” (priority 2016, published 2023).
